# Target: T1, rat ASIC1a (Rattus norvegicus, UniProt P55926)
# T1 construct: expressed in transfected cells
# T1 sequence (P55926 1-526): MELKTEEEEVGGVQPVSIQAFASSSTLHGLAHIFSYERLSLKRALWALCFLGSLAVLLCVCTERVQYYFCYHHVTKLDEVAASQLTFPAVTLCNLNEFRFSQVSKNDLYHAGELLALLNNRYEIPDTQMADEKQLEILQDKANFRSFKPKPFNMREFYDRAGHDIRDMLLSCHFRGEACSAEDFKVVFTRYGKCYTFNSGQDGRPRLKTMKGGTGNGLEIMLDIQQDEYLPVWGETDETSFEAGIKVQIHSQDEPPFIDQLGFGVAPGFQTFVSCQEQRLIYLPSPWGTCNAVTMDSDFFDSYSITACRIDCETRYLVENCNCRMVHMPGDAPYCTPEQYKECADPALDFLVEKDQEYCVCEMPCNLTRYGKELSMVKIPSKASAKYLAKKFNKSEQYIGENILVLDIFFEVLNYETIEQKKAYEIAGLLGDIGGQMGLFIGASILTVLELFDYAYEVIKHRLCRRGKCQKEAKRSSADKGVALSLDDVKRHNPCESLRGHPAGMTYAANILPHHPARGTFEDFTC
# Test: Kinetics of onset of and recovery (wash) from compound inhibition
# Assay type: cell-based
# Details: for pH 6.8-induced current, % pH7.4 control: holding pH 7.4, one cell; for pH 6.8-induced current, % pH8.2 control: holding pH 8.2, one cell; for max - % pH7.4 or 8.2 Control (Y): maximal wash current / ss - % pH7.4 or 8.2 Control (Y): steady-state wash current: after 100 nM
# Procedure: Chinese Hamster Ovary (CHO) cells stably expressing rat ASIC1a were cultured in Ham’s F12, supplemented with 10% FBS, 1% penicillin–streptomycin and 500 µg/mL G418 and incubated at 37 °C with 5% CO2. Transient transfections of rASIC1a and cASIC1 wild-type or mutant channels in CHO cells were performed with Lipofectamine 3000 (Thermo Fisher Scientific) according to the manufacturer’s recommendations. The green fluorescent protein (GFP) cDNA (at 1/10 the amount of channel cDNA) was co-transfected with channel cDNA to aid the identification of transfected cells under the microscope in patch clamp experiments. All cDNAs were sequence verified.
# Cells were freshly dissociated with CellStripper (Corning) and dispersed in a chamber on the stage of an inverted microscope. Upon formation of the whole-cell conformation, the cell was lifted from the bottom of the chamber and placed at the tip of a tubing perfusing an extracellular solution containing (in mM): 149 NaCl, 2 CaCl2, 4 KCl, 1 MgCl2, 5 glucose, 10 HEPES, pH 7.4, 310 mOsm/L. Extracellular solutions at more basic or acidic pHs were made by titrating the above pH 7.4 solution with NaOH or HCl (5 mM MES was added to solutions at pH 6.0 and lower). Pipette electrodes were filled with an intracellular solution containing (in mM): 135 KCl, 4 MgATP, 0.3 Na2GTP, 10 EGTA, and 20 HEPES, pH 7.2, 290 mOsm/L.
# All recordings were performed at room temperature using an Axopatch 200B amplifier and pClamp 11 software (Molecular Devices). Currents were measured by whole-cell patch clamp, digitized at 10 kHz and lowpass filtered at 2 kHz. Series resistance was 75% compensated. Responses were elicited by rapid perfusion of acidic solutions using the SF-77B Fast-Step Perfusion device (Warner Instruments) for 40 ms once every 30 s (unless indicated otherwise) and recorded till steady state was reached. The holding potential was 0 mV unless indicated otherwise.
# Baseline values (i.e., current amplitudes at the conditioning pH) were subtracted to obtain responses evoked by the test pH. Responses were normalized for each cell before averaging (see figure legends for more detail on normalization for each type of experiment). Concentration–response data were fitted to a logistic function of the form: R = (A1–A2)/(1 + (C/C0)^h)+A2, where R is the normalized response, C is either pH or compound concentration, C0 is the pH/concentration at which half-maximal response occurs (pH50 or IC50), h is the Hill coefficient, and A1 and A2 are constants. Kinetic parameters were obtained by fitting the data with either a single or double exponential function. Fitted data are shown as solid, dashed, or dotted curves.
# [1] = 100 nM, t = -50 s (wash starts at t = 0 s)
# [2] = holding pH 7.4 (source data Fig. 2d)
# [3] = holding pH 8.2 (source data Fig. 2d)
smiles,measurement,setting,value
Cc1cc(N2CC(Oc3cc(F)c4c(N)n[nH]c4c3)C2)c(F)cn1 [JNJ-67869386],overshoot of maximum wash current above pre-block control level,"100 nM, holding pH 7.4",> 50%
same,"pH 6.8-induced current, % pH7.4 control","100 nM, t = 0 s",4.9%
same,"pH 6.8-induced current, % pH7.4 control","100 nM, t = -10 s",4.7%
same,"pH 6.8-induced current, % pH7.4 control","100 nM, t = -20 s",3.6%
same,"pH 6.8-induced current, % pH7.4 control","100 nM, t = -30 s",3.3%
same,"pH 6.8-induced current, % pH7.4 control","100 nM, t = -40 s",4.5%
same,"pH 6.8-induced current, % pH7.4 control",[1],6.7%
same,"pH 6.8-induced current, % pH8.2 control","100 nM, t = 0 s",4.5%
same,"pH 6.8-induced current, % pH8.2 control","100 nM, t = -10 s",7.4%
same,"pH 6.8-induced current, % pH8.2 control","100 nM, t = -20 s",4.9%
same,"pH 6.8-induced current, % pH8.2 control","100 nM, t = -30 s",4.9%
same,"pH 6.8-induced current, % pH8.2 control","100 nM, t = -40 s",5.7%
same,"pH 6.8-induced current, % pH8.2 control",[1],47.2%
same,time constant of current inhibition,"100 nM, holding pH 8.2, pH 6.0 test pulses",3.6 ± 0.2 s
same,time constant of wash from inhibition,"100 nM, wash at pH 7.8, pH 6.0-evoked currents",12.6 ± 0.6 s
same,time constant of wash from inhibition,"100 nM, wash at pH 8.2, pH 6.0-evoked currents",12.7 ± 1.3 s
same,max - % pH7.4 or 8.2 Control (Y): maximal wash current,[2],154.4%
same,ss - % pH7.4 or 8.2 Control (Y): steady-state wash current,[2],95.3%
same,max - % pH7.4 or 8.2 Control (Y): maximal wash current,[3],96.9%
same,ss - % pH7.4 or 8.2 Control (Y): steady-state wash current,[3],96.8%
same,"pH 6.8-induced current, % pH7.4 control","wash after 100 nM, t = 10 s",36.5%
same,"pH 6.8-induced current, % pH7.4 control","wash after 100 nM, t = 20 s",90.8%
same,"pH 6.8-induced current, % pH7.4 control","wash after 100 nM, t = 30 s",132.5%
same,"pH 6.8-induced current, % pH7.4 control","wash after 100 nM, t = 40 s",161.6%
same,"pH 6.8-induced current, % pH7.4 control","wash after 100 nM, t = 50 s",157.3%
same,"pH 6.8-induced current, % pH7.4 control","wash after 100 nM, t = 60 s",153.5%
same,"pH 6.8-induced current, % pH7.4 control","wash after 100 nM, t = 70 s",157.1%
same,"pH 6.8-induced current, % pH7.4 control","wash after 100 nM, t = 80 s",151.7%
same,"pH 6.8-induced current, % pH7.4 control","wash after 100 nM, t = 90 s",149.4%
same,"pH 6.8-induced current, % pH7.4 control","wash after 100 nM, t = 100 s",151.7%
same,"pH 6.8-induced current, % pH7.4 control","wash after 100 nM, t = 110 s",141.4%
same,"pH 6.8-induced current, % pH7.4 control","wash after 100 nM, t = 120 s",127.3%
same,"pH 6.8-induced current, % pH7.4 control","wash after 100 nM, t = 130 s",116.2%
same,"pH 6.8-induced current, % pH7.4 control","wash after 100 nM, t = 140 s",120.1%
same,"pH 6.8-induced current, % pH7.4 control","wash after 100 nM, t = 150 s",108.5%
same,"pH 6.8-induced current, % pH7.4 control","wash after 100 nM, t = 160 s",117.3%
same,"pH 6.8-induced current, % pH7.4 control","wash after 100 nM, t = 170 s",108.8%
same,"pH 6.8-induced current, % pH7.4 control","wash after 100 nM, t = 180 s",100.4%
same,"pH 6.8-induced current, % pH7.4 control","wash after 100 nM, t = 190 s",95.1%
same,"pH 6.8-induced current, % pH7.4 control","wash after 100 nM, t = 200 s",97.0%
same,"pH 6.8-induced current, % pH7.4 control","wash after 100 nM, t = 210 s",100.5%
same,"pH 6.8-induced current, % pH7.4 control","wash after 100 nM, t = 220 s",101.0%
same,"pH 6.8-induced current, % pH8.2 control","wash after 100 nM, t = 10 s",18.2%
same,"pH 6.8-induced current, % pH8.2 control","wash after 100 nM, t = 20 s",43.8%

# Reference: publication PMC7873226, “Molecular mechanism and structural basis of small-molecule modulation of the gating of acid-sensing ion channel 1” (Communications Biology, 2021)
